Laboratory results published in US11492327B2, “Aminooxylipids for the construction of self-assembling liposomal systems enabling their subsequent modification by biologically functional molecules” (VYSOKA SKOLA CHEMICKO-TECHNOLOGICKA V PRAZE, priority 2016, dated 2022).

What was measured:
[1] = HA binding onto liposomes presenting the aminooxy group vs. the amino group (gel chromatography, fluorimetry); conditions: incubated in 10 mM citric acid; lipid incorporated in liposomes
Protocol: Methods: Liposomes presenting the aminooxy group were prepared by the procedure described in Example 15, containing 1% aminooxylipidid of general formula I (according to Example 14) at a starting concentration of 10 mg/ml PBS. The amino group-presenting liposomes were prepared by the same technique with the amino group-containing lipid DOPE. These liposomes at a starting concentration of 10 mg/ml PBS were mixed with fluorescently labelled HA (Sigma-Aldrich) at a concentration of 1 mg/ml PBS in a ratio of 1 mg total lipid to 0.1 mg HA. Incubation takes place for at least 30 minutes at room temperature (see Example 19). Both samples were incubated in 10 mM citric acid. Unbound HA was removed on a Superose 6 column (200 μl spraying buffer, flow rate of the first milliliter was 0.1 ml/min, then 0.3 ml/min, collection of 1 ml fractions). Fluorescence was measured using a Perkin Elmer fluorimeter at appropriate wavelengths (excitation for FITC-HA was 490 nm, emission 505 nm).

[2] = Size, PDI and zeta-potential of liposomes by DLS (Nanosizer ZS); format: physicochemical; conditions: for Effect of incorporation into liposomes on the final distribution of liposomes: 99% EPC, 1% aminooxylipid; for Zeta potential: liposomes containing 1% aminooxylipid in PBS solution with neutral pH
Protocol: Methods: Liposomes with incorporated aminooxylipids were prepared by phospholipid film hydration. All lipids were dissolved in chloroform at a concentration of 10 mg of lipid/1 ml chloroform at a molar ratio of 99% EPC to 1% aminooxylipids of general formula I (according to Examples 12, 13 and 14). The chloroform solution was evaporated in a globular flask on a rotary evaporator; pressure: 100 hPa, water bath temperature: 37° C., 90 revolutions/minute). The resulting lipid film was hydrated with PBS (pH 7.2, 0.14M NaCl, 20 mM Na-phosphate) to a final concentration of 10 mg/ml. The liposomes were then extruded through Nucleopore polycarbonate filters with 400 and 100 nm pore size. The size and zeta-potential were measured using a Nanosizer ZS (Malvern, UK) in a DTS cell, Attenuator value 4, 25° C. […] Example with a lipid of general formula I (according to Example 12): EPC liposomes: size 82 nm, PDI 0.11; EPC+ aminooxylipid 1%: size 81 nm, PDI 0.1.
DLS measurements were carried out under the same conditions as in Example 15.
Methods: The liposomes prepared as described in Example 15, containing 1% aminooxylipidid of general formula I (according to Example 14) at a starting concentration of 10 mg/ml PBS were mixed with a mannan solution in PBS in a ratio of 1 mg total lipid to 0.1 mg mannan. The reaction was carried out at room temperature. Low molecular weight components and unbound mannan were removed by gel chromatography on a Superose 6 column. The mannan binding onto the liposomal surface was confirmed by: a) scanning and transmission electron microscopy; b) the change in liposome size was determined by the DLS technique (Zetasizer ZS, Malvern UK). The polysaccharide mannan was isolated from the yeast Candida albicans. The size of the molecules of mannan and liposomes was measured by DLS. […] Dendritic cells were prepared by culture from peripheral blood of healthy donors. Their stimulating activity was compared with lipopolysaccharide activity (LPS, standard Salmonella minnesota).

T-lymphocytes = experiment: Cytotoxicity of liposomes: apoptotic cells detected with Annexin V by flow cytometry; format: cell-based; conditions: aminooxylipid incorporated into liposomal bilayer
Protocol: (§1) Methods: The cytotoxicity of liposomes prepared as described in Example 15 is determined by comparing the cytotoxicity of EPC liposomes and EPC liposomes with an incorporated aminooxylipid of general formula I (according to Example 12, 13 or 14) in in vitro experiments with T-lymphocytes and on H1299 cells of lung carcinoma cell line.
(§2) Measurements were performed on a flow cytometer Fortessa (Becton Dickinson). Apoptotic cells were detected and quantified using the fluorescent dye Annexin V (Invitrogen).
(§3) In all experiments, 500 μl media per well were used and lipid content was 100 μg per 1 ml of the medium. Unmodified liposomes and liposomes modified post-liposomally with hyaluronic acid were incubated. In Experiment 1, H1299 cells of lung carcinoma were incubated for 30 minutes at 4° C. In Experiment 2, T-lymphocytes were used and incubated at room temperature in a rotator. In Experiments 3 and 4, H1299 cells of lung carcinoma cell line were used and incubated for 2 hours in a CO2 incubator (37° C., 5% CO2). In Experiment 5, H1299 cells of lung carcinoma were used. These cells were incubated for 30 minutes at 4° C. in a refrigerator.

[3] = system: H1299 cells of lung carcinoma cell line; experiment: as above; format: cell-based; conditions: aminooxylipid incorporated into liposomal bilayer
Protocol: as §1, §2, §3

Compound	HA remaining bound after acidification, % of the original HA [1]	Effect of incorporation into liposomes on the final distribution of liposomes ([2]; Example 15)	PDI ([2]; Example 15, EPC liposomes without or with 1% aminooxylipid, PBS)	size ([2]; Example 15, EPC liposomes without or with 1% aminooxylipid, PBS, extruded 400 and 100 nm) [nm]	Zeta potential [2]	Cytotoxicity of EPC liposomes with incorporated aminooxylipid vs. EPC liposomes (T-lymphocytes)	Cytotoxicity of EPC liposomes with incorporated aminooxylipid vs. EPC liposomes [3]	size (size distribution, particle numbers) ([2]; Example 20, FIG. 3, liposomes with 1% aminooxylipid, alone or coupled with IgY) [nm]
CCCCCCCC/C=C\CCCCCCCC(=O)OC[C@H](COP(=O)(O)OCCN)OC(=O)CCCCCCC/C=C\CCCCCCCC [DOPE, 1,2-dioleoyl-sn-glycero-3-phosphoethanolamine, reference compound]	20%							
CCCCCCCCCCCCCCC(CCCCCCCCCCCCCC)C(=O)NCCNC(=O)CON.O=C(O)C(F)(F)F [Example 12, N^1-(2-tetradecylhexadecanoyl)-N^2-amoniumoxyacetyl-1,2-diaminoethane-trifluoroacetate]		no significant effect	0.1	81	around 0 mV	does not result in an increase in their cytotoxicity	does not result in an increase in their cytotoxicity	
CCCCCCCCCCCCCCC(CCCCCCCCCCCCCC)C(=O)NCCCNC(=O)CON.O=C(O)C(F)(F)F [Example 13, N^1-(2-tetradecylhexadecanoyl)-N^3-amoniumoxyacetyl-1,3-diaminopropane-trifluoracetate]		no significant effect			around 0 mV	does not result in an increase in their cytotoxicity	does not result in an increase in their cytotoxicity	
CCCCCCCCCCCCCCC(CCCCCCCCCCCCCC)C(=O)NCOC(CCOCC)NC(=O)CON.O=C(O)C(F)(F)F (centres unmarked) [Example 14, N^1-(2-tetradecylhexadecanoyl)-N^3-amoniumoxyacetyl-1,3-diamino-2,6-dioxaoctane-trifluoracetate]	did not change due to acidification	no significant effect			around 0 mV	does not result in an increase in their cytotoxicity	does not result in an increase in their cytotoxicity	107
